In one data set the target is T1, EfTyrDC (Enterococcus faecalis, UniProt Q838D6).
T1 construct: gene tdc; recombinant in E. coli BL21(DE3)
Briefly: HPLC conversion. The note with it: PLP, HEPES pH 7.5, 37 °C, 6 h; coupled with CvTAm. The data set is classed as biochemical.

For another data set, the target named is T2, CvTAm (Chromobacterium violaceum, UniProt Q7NWG4).
T2 construct: gene CV_2025; recombinant in E. coli BL21(DE3)
Briefly: HPLC conversion. The note with it: amine donor; pyruvate acceptor, PLP, HEPES pH 7.5, 37 °C, 6 h. It is filed as biochemical.

The next data set has as its system NCCc1ccc(O)cc1. Briefly: cells, lysate or membranes. The data set is classed as cell-based, Candidatus Nitrosopumilus salarius. The note with it: apparent constant; N201S variant; copper enzyme; assay details in supplement.

T1 sequence (Q838D6 whole entry): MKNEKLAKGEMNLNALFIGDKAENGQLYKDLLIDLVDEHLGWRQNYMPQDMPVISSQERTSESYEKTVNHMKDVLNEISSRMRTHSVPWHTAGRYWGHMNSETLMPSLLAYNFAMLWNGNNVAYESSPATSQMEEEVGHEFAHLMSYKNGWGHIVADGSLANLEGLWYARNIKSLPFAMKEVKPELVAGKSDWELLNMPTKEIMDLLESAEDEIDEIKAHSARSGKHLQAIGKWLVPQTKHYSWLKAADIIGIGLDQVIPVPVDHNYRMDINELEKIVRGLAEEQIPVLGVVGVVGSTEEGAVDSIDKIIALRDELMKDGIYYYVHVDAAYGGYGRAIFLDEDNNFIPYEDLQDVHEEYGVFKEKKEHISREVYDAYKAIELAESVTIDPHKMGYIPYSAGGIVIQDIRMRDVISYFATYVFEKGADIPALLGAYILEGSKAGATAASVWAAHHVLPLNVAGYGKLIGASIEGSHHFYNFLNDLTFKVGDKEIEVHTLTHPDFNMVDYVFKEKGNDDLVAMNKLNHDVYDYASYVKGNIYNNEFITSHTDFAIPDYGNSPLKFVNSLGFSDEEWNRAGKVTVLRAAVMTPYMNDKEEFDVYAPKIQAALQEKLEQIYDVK
T2 sequence (Q7NWG4 entry or part of it): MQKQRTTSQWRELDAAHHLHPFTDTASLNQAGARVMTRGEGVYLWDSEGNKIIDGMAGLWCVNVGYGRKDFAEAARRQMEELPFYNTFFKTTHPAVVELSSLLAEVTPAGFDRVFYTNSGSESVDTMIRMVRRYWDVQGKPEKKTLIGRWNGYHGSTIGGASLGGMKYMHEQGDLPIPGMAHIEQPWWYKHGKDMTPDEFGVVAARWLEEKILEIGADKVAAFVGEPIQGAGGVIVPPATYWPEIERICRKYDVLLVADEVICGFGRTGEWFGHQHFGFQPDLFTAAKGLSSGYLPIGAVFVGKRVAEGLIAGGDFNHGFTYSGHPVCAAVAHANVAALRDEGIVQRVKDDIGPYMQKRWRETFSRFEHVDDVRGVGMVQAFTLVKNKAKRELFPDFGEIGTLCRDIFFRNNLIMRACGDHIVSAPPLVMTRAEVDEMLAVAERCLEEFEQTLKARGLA

As for `N[C@@H](Cc1ccc(O)c(Cl)c1)C(=O)O` [compound 12, 3-Cl-L-tyrosine], on EfTyrDC, the HPLC conversion result is “All of the selected substrates were readily accepted by EfTyrDC and CvTAm”.
The same measure, in the same setting: under `N[C@@H](Cc1cccc(O)c1)C(=O)O` [compound 9, meta-L-tyrosine] stands “All of the selected substrates were readily accepted by EfTyrDC and CvTAm”.
For `NCCCc1ccccc1` [compound 14, 3-phenyl-1-propylamine], the HPLC conversion result at CvTAm is “All of the selected substrates were readily accepted by EfTyrDC and CvTAm”.
For orientation: Km means the concentration of substrate that gives half-maximal velocity. Broadly, the kcat is the number of substrate molecules converted per active site and unit of time at saturation. For “CnTYR (Candidatus Nitrosopumilus salarius BD31; N201S)”, in the data set with NCCc1ccc(O)cc1, the Km turned out to be 1780 µM and the kcat stood at 197.5 s⁻¹.

The values above are taken from publication PMC9481557, “Enzymatic synthesis of benzylisoquinoline alkaloids using a parallel cascade strategy and tyrosinase variants” (Nature Communications, 2022).
